Data on two compounds can be found in US8410089B2, “Fused heterocyclic ring compound” (Takeda Pharmaceutical Company Limited, priority 2009, dated 2013).

For experiment [1], the target named is T1, human GPR119 (Homo sapiens, UniProt Q8TDV5).
T1 construct: expressed in transfected cells
T1 sequence (Q8TDV5 1-335): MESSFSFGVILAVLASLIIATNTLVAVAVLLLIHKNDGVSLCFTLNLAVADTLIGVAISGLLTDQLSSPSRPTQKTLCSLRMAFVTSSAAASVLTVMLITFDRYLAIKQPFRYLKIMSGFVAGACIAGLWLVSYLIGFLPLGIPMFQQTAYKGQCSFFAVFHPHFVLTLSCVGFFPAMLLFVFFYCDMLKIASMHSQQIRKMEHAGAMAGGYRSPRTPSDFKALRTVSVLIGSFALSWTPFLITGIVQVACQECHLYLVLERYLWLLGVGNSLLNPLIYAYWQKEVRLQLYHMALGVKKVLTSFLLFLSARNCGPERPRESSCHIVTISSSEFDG
Kind of experiment: Human GPR119 agonist activity with increase of intracellular cAMP concentration as index (CRE-luciferase reporter assay in hGPR119/CRE-luc/CHO(dhfr-) cells). It counts as cell-based. The following applies: 1 μM test compound, 2 hr incubation; luciferase activity with 10 μM N-[4-(methylsulfonyl)phenyl]-5-nitro-6-{4-[4-(trifluoromethoxy)phenoxy]piperidin-1-yl}pyrimidin-4-amine = 100%, DMSO = 0%. On the procedure:
Evaluation of Human GPR119 Agonist Activity with Increase of Intracellular Camp Concentration as Index
(1) Construction of Expression Plasmid of Human GPR119 Gene
Using High Fidelity RNA PCR Kit (Takara Bio Inc.), human GPR119 gene was cloned by PCR using cDNA library synthesized from human brain mRNA (Clontech) as a template and synthetic DNA having the following sequence. Primer 1 and Primer 2 were is prepared by adding cleavage sites for Sal I and Nhe I based on the base sequence information of human GPR119 gene.
PCR was performed using Pyrobest DNA polymerase (Takara Bio Inc.). The obtained PCR product was cloned to pUC118 (Takara Bio Inc.), and the base sequence was […] and digested with restriction enzymes Sal I, Nhe I. The obtained DNA fragment was inserted into an animal cell expression vector pAKKO-111H (plasmid same as pAKKO-1.111H described in Biochem. Biophys. Acta, Hinuma, S. et al., 1219, 251-259 (1994)) similarly digested with Sal I, Nhe I, whereby an expression plasmid pAKKO-111H/hGPR119 was prepared.
(2) Construction of Reporter Plasmid
Zeocin resistance gene was cloned by PCR using plasmid pcDNA3.1/Zeo (Invitrogen) as a template, synthetic DNA having the following sequences wherein cleavage sites for restriction enzymes Sal I and BamH I are added to before and after a region containing SV40 Ori and a region containing SV40pA, which are located at the upstream and downstream of Zeocin resistance gene of this plasmid, as a primer set, and KOD polymerase (TOYOBO).
The obtained PCR product was inserted into pCR-BluntII (Invitrogen). A fragment containing a Zeocine resistance gene obtained by digesting the plasmid with restriction enzymes Sal I and BamH I was inserted into plasmid pGL3(R2.2)-Basic Vector (promega) similarly digested with Sal I and Bam HI to give Zeocin resistance plasmid pGL3(R2.2)/Zeocin-Basic Vector.
A reporter plasmid containing 4 cAMP responsive elements (CRE) connected in tandem was prepared using the following 5′-terminal phosphorylated synthetic DNA.
First, a DNA fragment containing a CRE sequence obtained by annealing CRE-Upper and CRE-Lower and elongating with KOD polymerase was inserted into pCR-BluntII to give pCR-BluntII-CRE. A fragment cleaved from pCR-BluntII-CRE with restriction enzymes Kpn I and Hind III was inserted into pGL3(R2.2)/Zeocin-Basic Vector similarly digested with Kpn I and Hind III to give reporter plasmid pGL3(R2.2)/Zeocin-CRE-luc.
(3) Introduction of Human GPR119 Gene and Reporter Gene into CHO(dhfr-) Cells and Acquirement of Expressing Cell
CHO(dhfr-) cells in MEMα (minimum essential medium alpha) (Nikken bio medical laboratory) medium containing 10% fetal bovine serum, 100 U/mL penicillin and 100 μg/mL streptomycin (Invitrogen) were detached by a treatment with trypsin-EDTA (ethylenediaminetetraacetic acid) (Invitrogen), the cells were washed with PBS (Phosphate-buffered saline), centrifuged (1000 rpm, 5 min) and suspended in PBS at a cell density of 1×10^7 cells/mL. Then, DNA was introduced into the cell by a gene pulser (Bio-Rad) under the following conditions. That is, 1×10^7 cells, plasmid pGL3(R2.2)/Zeocin-CRE-luc (15 μg), which was obtained in (2) and linearized with BssH II, and pAKKO-111H (5 μg) were added in a 0.4 cm gap cuvette, and the mixture was electroporated at voltage […], capacitance 950 μF. The cells were placed in the above-mentioned medium, cultured for 24 hr, and the cells were detached and centrifuged. The cells were diluted to 250 cells/well, plated in a 96 well plate (Corning) and cultivated in a CO2 incubator at 37° C. to give a transformant. Then, forskolin was added to the obtained transformant and a strain (CRE-luc/CHO(dhfr-) cell) that induces luciferase expression was selected. […]

The subject of experiment [2] is male Wistar fatty rats. Kind of experiment: Oral glucose tolerance test (OGTT), hypoglycemic action. It counts as in vivo, rat. The following applies: 10 mg/kg oral; for blood glucose lowering rate (%): OGTT in WF rats, decrease rate of AUC0-120min with control group as 100%, **p ≦ 0.01 vs control; for plasma glucose AUC0-120 min: 22-week-old WF rats fasted overnight, glucose 1 g/kg oral 60 min after compound, control group 32734.2. Here is the method:
A hypoglycemic action of the compound of the present invention was examined in an oral glucose tolerance test (OGTT) using male Wistar fatty rats (WF rat, TAKEDA RABICS).
First, 22-week-old WF rats fasted overnight were divided into groups (6 per group), and blood samples were collected and used as plasma samples before drug administration (−60 min). Thereafter, 0.5% methylcellulose (control group) and a test compound was orally administered at 10 mg/kg. At 60 min after compound administration, each individual was loaded by oral administration of glucose at 1 g/kg, and the blood was drawn before glucose loading (0 min) and 10, 30, 60 and 120 min after loading. The plasma glucose concentration was measured using L type Waco Glu2 (Wako) and Hitachi automatic analyzer 7080 (Hitachi Instruments Service Co., Ltd.). The 0-120 min area under time curve (AUC0-120min) and the decrease rate when the control group was 100% were calculated from the plasma glucose values measured.

On to `CC(C)SC(=O)N1CCC(Oc2cc(N3CCc4cc(S(C)(=O)=O)ccc43)ncn2)CC1` [Example 35, S-(1-methylethyl)4-({6-[5-(methylsulfonyl)-2,3-dihydro-1H-indol-1-yl]pyrimidin-4-yl}oxy)piperidine-1-carbothioate], for which the “GPR119 agonist activity (%) at 1 μM concentration” value in experiment [1] stood at 82%. Also, in experiment [2], the “blood glucose lowering rate (%)” value is on record as 23.0** % and the “plasma glucose AUC0-120 min” value was determined as 25212.5 mg·min/dL.

`CC(C)c1noc(N2CCC(Oc3cc(N4CCc5cc(S(C)(=O)=O)ccc54)ncn3)CC2)n1` [Example 38, 1-[6-({1-[3-(1-methylethyl)-1,2,4-oxadiazol-5-yl]piperidin-4-yl}oxy)pyrimidin-4-yl]-5-(methylsulfonyl)-2,3-dihydro-1H-indole]: in experiment [1], the “GPR119 agonist activity (%) at 1 μM concentration” value is given as 79%. Also, in experiment [2], the “blood glucose lowering rate (%)” value was 24.8** % and the “plasma glucose AUC0-120 min” value was found to be 24612.5 mg·min/dL.
